For 32 molecules, Emax and EC50 results are on record in US8859549B2, “Potassium channel modulators” (AbbVie, Inc., priority 2011, dated 2014).

In this assay the target is T1, KCNQ 2/3 channels (Homo sapiens, UniProt O43525+O43526).
T1 construct: expressed in transfected cells; host or cells: HEK293
Nature of the assay: KCNQ 2/3 channel activation, thallium flux FLIPR assay (BTC-AM dye). Type of assay: cell-based. Particulars: for Emax: HEK293, maximum response relative to the response of 10 μM retigabine (set at 100%), HEK293 KCNQ2/KCNQ3 cells, read-out: % MAX; for EC50: HEK293 cells stably expressing human KCNQ2 and KCNQ3 subunits, thallium-induced fluorescence, 4 min compound incubation. The essentials:
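HEK293 cells stably expressing human KCNQ2/KCNQ3 were loaded with BTC-AM (3 μg/mL, 2 h, RT) and preincubated with compound for 4 min in pH 7.3 gluconate buffer containing 0.1 mM ouabain. Flux was triggered by 6 mM TlNO3/10 mM K2SO4 and read for 3 min; EC50 came from summed responses over basal, with maximum relative to 10 μM retigabine (100%).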

Molecules are shown by their SMILES.

Take `CC(C)(C)CC(=O)Nn1nc(N2CCOCC2)c2ccccc2c1=O` [Example 135, 3,3-dimethyl-N-[4-(morpholin-4-yl)-1-oxophthalazin-2(1H)-yl]butanamide]: the Emax was found to be 75.3% and the EC50 stood at 11800 nM. On to `CC(C)(C)OC(=O)NCc1nn(NC(=O)Cc2ccc(C(F)(F)F)cc2)c(=O)c2ccccc12` [Example 118, tert-butyl{[4-oxo-3-({[4-(trifluoromethyl)phenyl]acetyl}amino)-3,4-dihydrophthalazin-1-yl]methyl}carbamate], for which the Emax was 40.7% and the EC50 worked out at 2850 nM. On to `CCC1CN(c2nn(NC(=O)Cc3ccc(Cl)cc3)c(=O)c3ccccc23)CCO1` (stereo not shown) [Example 221, 2-(4-chlorophenyl)-N-[4-(2-ethylmorpholin-4-yl)-1-oxophthalazin-2(1H)-yl]acetamide], for which the Emax was 101% and the EC50 is 320 nM. As to `O=C(Cc1ccc(Cl)cc1)Nn1nc(C(=O)O)c2ccccc2c1=O` [Example 65, 3-{[(4-chlorophenyl)acetyl]amino}-4-oxo-3,4-dihydrophthalazine-1-carboxylic acid], the Emax is 30.1%. Take `O=C(Cc1ccc(Cl)cc1)Nn1nc(Cc2ccc(Cl)[n+]([O-])c2)c2ccccc2c1=O` [Example 104, N-{4-[(6-chloro-1-oxidopyridin-3-yl)methyl]-1-oxophthalazin-2(1H)-yl}-2-(4-chlorophenyl)acetamide]: the Emax was found to be 11.7%. On to `CC(C)(C)COC(=O)NCc1nn(NC(=O)Cc2ccc(Cl)cc2)c(=O)c2ccccc12` [Example 184, 2,2-dimethylpropyl[(3-{[(4-chlorophenyl)acetyl]amino}-4-oxo-3,4-dihydrophthalazin-1-yl)methyl]carbamate], for which the Emax is 62.7% and the midpoint of the response, the EC50, lay at 1320 nM. Regarding `O=C(Cc1cc(F)cc(F)c1)Nn1nc(N2CCSCC2)c2ccccc2c1=O` [Example 92, 2-(3,5-difluorophenyl)-N-[1-oxo-4-(thiomorpholin-4-yl)phthalazin-2(1H)-yl]acetamide], the Emax amounted to 187% and the EC50 was 618 nM. As to `COC(=O)c1cc(-c2nn(NC(=O)CC3CC4CCC3C4)c(=O)c3ccccc23)ccn1` (racemic) [Example 74, (±)-methyl 4-(3-{[(exo)-bicyclo[2.2.1]hept-2-ylacetyl]amino}-4-oxo-3,4-dihydrophthalazin-1-yl)pyridine-2-carboxylate], the Emax amounted to 21.8%. Regarding `O=C(Cc1cc(F)cc(F)c1)Nn1nc(S(=O)(=O)Cc2ccccc2)c2ccccc2c1=O` [Example 215, N-[4-(benzylsulfonyl)-1-oxophthalazin-2(1H)-yl]-2-(3,5-difluorophenyl)acetamide], the Emax stood at 45% and the EC50 was determined as 916 nM. `CC(C)(C)OC(=O)N1CCN(C(=O)c2nn(NC(=O)CC3CC4CCC3C4)c(=O)c3ccccc23)CC1` (racemic) [Example 98, (±)-tert-butyl 4-[(3-{[(exo)-bicyclo[2.2.1]hept-2-ylacetyl]amino}-4-oxo-3,4-dihydrophthalazin-1-yl)carbonyl]piperazine-1-carboxylate]: the Emax worked out at 140% and the EC50 stood at 4970 nM.

In the case of `O=C(CC1CC2CCC1C2)Nn1nc(C(=O)N2CCOCC2)c2ccccc2c1=O` (racemic) [Example 95, (±)-2-[(exo)-bicyclo[2.2.1]hept-2-yl]-N-[4-(morpholin-4-ylcarbonyl)-1-oxophthalazin-2(1H)-yl]acetamide], the Emax worked out at 73%. For `CC(C)(CC(=O)Nn1nc(N2CCOCC2)c2ccccc2c1=O)c1ccccc1` [Example 33, 3-methyl-N-[4-(morpholin-4-yl)-1-oxophthalazin-2(1H)-yl]-3-phenylbutanamide], the Emax came to 131% and the EC50 is 1590 nM. `O=C(Cc1c(Cl)cccc1Cl)Nn1nc(N2CCOCC2)c2ccccc2c1=O` [Example 178, 2-(2,6-dichlorophenyl)-N-[4-(morpholin-4-yl)-1-oxophthalazin-2(1H)-yl]acetamide]: the Emax was -1.83%.

In the case of `O=C(CC1CC2CCC1C2)Nn1nc(Sc2ccc(Br)cc2)c2ccccc2c1=O` (racemic) [Example 200, (±)-2-[(exo)-bicyclo[2.2.1]hept-2-yl]-N-{4-[(4-bromophenyl)sulfanyl]-1-oxophthalazin-2(1H)-yl}acetamide], the Emax came to 180% and the midpoint of the response, the EC50, lay at 23.2 nM.

With `O=C(CC1CC2CCC1C2)Nn1nc(-c2cccnc2)c2ccccc2c1=O` (racemic) [Example 8, (±)-2-[(exo)-bicyclo[2.2.1]hept-2-yl]-N-[1-oxo-4-(pyridin-3-yl)phthalazin-2(1H)-yl]acetamide], the Emax was found to be 129% and the EC50 was determined as 455 nM. With `CS(=O)(=O)c1ccc(CC(=O)Nn2nc(N3CCOCC3)c3ccccc3c2=O)cc1` [Example 130, 2-[4-(methylsulfonyl)phenyl]-N-[4-(morpholin-4-yl)-1-oxophthalazin-2(1H)-yl]acetamide], the Emax stood at 5.33%. `O=C(CC1CC2CCC1C2)Nn1nc(-c2ccnc(O)c2)c2ccccc2c1=O` (racemic) [Example 46, (±)-2-[(exo)-bicyclo[2.2.1]hept-2-yl]-N-[4-(2-hydroxypyridin-4-yl)-1-oxophthalazin-2(1H)-yl]acetamide]: the Emax came to 13.4%. On to `O=C(Cc1ccc(F)cc1)Nn1nc(N2CCOCC2)c2ccccc2c1=O` [Example 150, 2-(4-fluorophenyl)-N-[4-(morpholin-4-yl)-1-oxophthalazin-2(1H)-yl]acetamide], for which the Emax was determined as 71.7% and it took 12900 nM to reach a half-maximal effect (EC50). For `O=C(CC1CC2CCC1C2)Nn1nc(C(=NO)c2ccccc2)c2ccccc2c1=O` (racemic) [Example 120, (±)-2-[(exo)-bicyclo[2.2.1]hept-2-yl]-N-{4-[(Z)-(hydroxyimino)(phenyl)methyl]-1-oxophthalazin-2(1H)-yl}acetamide], in that order: 136% and 3180 nM. On the same counts, the results for `O=C(Cc1ccc(Cl)cc1)Nn1nc(S(=O)(=O)c2ccc(Br)cc2)c2ccccc2c1=O` [Example 199, N-{4-[(4-bromophenyl)sulfonyl]-1-oxophthalazin-2(1H)-yl}-2-(4-chlorophenyl)acetamide] are 79.2% and 48.9 nM. On to `CC(C)(C)NC(=O)Cc1nn(NC(=O)Cc2ccc(Cl)cc2)c(=O)c2ccccc12` [Example 122, N-{4-[2-(tert-butylamino)-2-oxoethyl]-1-oxophthalazin-2(1H)-yl}-2-(4-chlorophenyl)acetamide], for which the Emax amounted to 14.2%. With `O=C(Cc1ccc(Cl)cc1)Nn1nc(SCc2ccccc2)c2ccccc2c1=O` [Example 213, N-[4-(benzylsulfanyl)-1-oxophthalazin-2(1H)-yl]-2-(4-chlorophenyl)acetamide], the Emax came out at 123% and the midpoint of the response, the EC50, lay at 30.3 nM. In the case of `CCOC(=O)c1nn(NC(=O)CC2CC3CCC2C3)c(=O)c2ccccc12` (racemic) [Example 51, (±)-ethyl 3-{[(exo)-bicyclo[2.2.1]hept-2-ylacetyl]amino}-4-oxo-3,4-dihydrophthalazine-1-carboxylate], the Emax was found to be 171% and the EC50 was determined as 275 nM. Take `CC(C)(C)C(=O)NCc1nn(NC(=O)Cc2ccc(Cl)cc2)c(=O)c2ccccc12` [Example 87, N-[(3-{[(4-chlorophenyl)acetyl]amino}-4-oxo-3,4-dihydrophthalazin-1-yl)methyl]-2,2-dimethylpropanamide]: the Emax is 89.1% and the EC50 amounted to 10100 nM. For `CC(C)(C)NC(=O)NCc1nn(NC(=O)Cc2ccc(Cl)cc2)c(=O)c2ccccc12` [Example 84, N-[4-{[(tert-butylcarbamoyl)amino]methyl}-1-oxophthalazin-2(1H)-yl]-2-(4-chlorophenyl)acetamide], the Emax was 40.8%. On to `CC(C)(CC(=O)Nn1nc(-c2ccc(Cl)nc2)c2ccccc2c1=O)c1ccccc1` [Example 27, N-[4-(6-chloropyridin-3-yl)-1-oxophthalazin-2(1H)-yl]-3-methyl-3-phenylbutanamide], for which the Emax was found to be 134% and a half-maximal effect (EC50) was put at 261 nM. As to `COc1cccc(CC(=O)Nn2nc(N3CCOCC3)c3ccccc3c2=O)c1OC` [Example 169, 2-(2,3-dimethoxyphenyl)-N-[4-(morpholin-4-yl)-1-oxophthalazin-2(1H)-yl]acetamide], the Emax came to 23.6%. As for `O=C(Cc1cccc(Cl)c1)Nn1nc(S(=O)(=O)c2ccccc2)c2ccccc2c1=O` [Example 209, 2-(3-chlorophenyl)-N-[1-oxo-4-(phenylsulfonyl)phthalazin-2(1H)-yl]acetamide], the Emax is 80.9% and the EC50 came out at 77.4 nM. On to `CC(C)COC(=O)NCc1nn(NC(=O)Cc2ccc(Cl)cc2)c(=O)c2ccccc12` [Example 185, 2-methylpropyl[(3-{[(4-chlorophenyl)acetyl]amino}-4-oxo-3,4-dihydrophthalazin-1-yl)methyl]carbamate], for which the Emax worked out at 44.6% and the EC50 amounted to 1240 nM. For `O=C(Cc1ccccc1)NCc1nn(NC(=O)Cc2ccc(Cl)cc2)c(=O)c2ccccc12` [Example 86, 2-(4-chlorophenyl)-N-[1-oxo-4-{[(phenylacetyl)amino]methyl}phthalazin-2(1H)-yl]acetamide], the Emax was 15.7%.

Turning to `Cc1ccsc1-c1nn(NC(=O)C[C@@H]2C[C@@H]3C=C[C@H]2C3)c(=O)c2ccccc12` [Example 17, 2-[(1S,2S,4S)-bicyclo[2.2.1]hept-5-en-2-yl]-N-[4-(3-methylthiophen-2-yl)-1-oxophthalazin-2(1H)-yl]acetamide], the Emax is 139% and the EC50 was 209 nM. With `O=C(Cc1ccc(Cl)cc1)Nn1nc(CCO)c2ccccc2c1=O` [Example 121, 2-(4-chlorophenyl)-N-[4-(2-hydroxyethyl)-1-oxophthalazin-2(1H)-yl]acetamide], the Emax was 10.5%.

Broadly, the EC50 is the concentration giving half of the maximal effect. Low values mean an effect from little substance, high ones a need for much substance.
